Measurements reported in PMC8199613, “Discovery of Novel Small-Molecule Inhibitors of PD-1/PD-L1 Interaction via Structural Simplification Strategy” (Molecules, 2021).
≈ marks a conversion by molar mass, not a printed value. Entries after “also recorded” stand apart in the source; their conditions may differ.

Tests used:
PD-1/PD-L1 interaction = target: T1, PD-1/PD-L1 interaction (Homo sapiens, UniProt Q9NZQ7); assay: HTRF-based PD-1/PD-L1 binding assay
T1 construct: purchased Cisbio 64ICP01PEG
T1 sequence (Q9NZQ7 19-238 limits assumed): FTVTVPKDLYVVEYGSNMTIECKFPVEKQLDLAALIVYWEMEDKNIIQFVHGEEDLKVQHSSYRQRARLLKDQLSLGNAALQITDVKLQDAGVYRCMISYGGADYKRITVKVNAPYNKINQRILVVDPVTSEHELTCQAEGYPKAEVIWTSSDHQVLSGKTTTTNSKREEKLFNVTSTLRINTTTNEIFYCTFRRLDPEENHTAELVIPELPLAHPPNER

hPD-L1 = hPD-L1 (Homo sapiens, UniProt Q9NZQ7); assay: SPR binding affinity assay (Biacore T200)
hPD-L1, sequence (Q9NZQ7 19-238 limits assumed): as above
Experimental: To provide definitive evidence of direct binding to PD-L1 with small-molecule inhibitors, an SPR-based binding assay was performed using Biacore T200 instrument, which facilitates measurement of the kinetic parameters of ligand–protein complex formation. In this determination, hPD-L1/Fc was loaded on a Series S Sensor Chip Protein A. A9 and A15, with similar bioactivities in HTRF assay, were gradually subjected to this assay, and their kinetic parameters and the binding affinities were determined with the aid of Biacore evaluation software.
SPR analysis was carried out according to the method described by a previous article. The kinetic analysis for the interaction of small molecules with hPD-L1 was performed on a Biacore T200 (GE Healthcare Bio-sciences, Uppsala, Sweden) using Series S Sensor Chip Protein A (GE Healthcare Bio-sciences, Uppsala, Sweden, catalog # 29139131-AA). Briefly, Fc-hPD-L1 (Acro Biosystems, Cambridge, MA, USA, catalog #PD1-H5258) was diluted using 1 × PBS-P^+ buffer (phosphate buffer 1×, GE Healthcare Bio-sciences, catalog # 28-9950-84, enriched with 0.05% surfactant P20) containing 5% DMSO (Sigma-Aldrich, St. Louis, MO, America, catalog # D4540) and captured as the ligand (i.e., the target of small molecules) on protein A chip surface following Biacore T200 build-in protocol for kinetic/affinity analysis at a concentration of 10 μg/mL. The contact time and flow rates were set as 120 s and 10 μL/min for the ligand capture. Each experiment was performed using a pair of flow cells, one with ligand captured and the other kept as reference. A concentration gradient of analytes was freshly prepared in 1× PBS-P^+ buffer with 5% DMSO with at least five concentrations, and the concentration range was optimized according to different analytes. Analytes could flow through both ligand-captured flow cells and reference flow cells at the same rate (30 μL/min) and contact time (90 s). Solvent correction was included to avoid the impact of DMSO on surface plasmon effect during binding analysis. Extra washing of the flow system using 50% DMSO in 1×PBS-P^+ buffer was allowed to control carry over effects. For the regeneration of surface after each cycle (one-time ligand capture and binding of analyte at a single concentration) was carried out using 10 mM glycine pH 1.5 (GE Healthcare Bio-sciences, Uppsala, Sweden, catalog #BR-1003-54) at a flow rate of 30 μL/min for 30 s. Kinetic analysis was performed at 25 °C. Maximum binding response (Rmax) and equilibrium dissociation […] (KD) values were calculated using Biacore T200 Evaluation software following the 1:1 binding model.

MDA-MB-231 cells = assay: MTT non-specific cytotoxicity assay, MDA-MB-231; type: cell-based
Experimental: (§1) Considering that the toxicity of the compound might strongly interfere with the assay if the tested compounds could block PD-1/PD-L1 interaction to activate T cells for killing tumors, we examined their cell toxicities of MDA-MB-231 and Jurkat T cells in MTT assay. […] Furthermore, Jurkat T cells were used to simulate primary T cells for investigating the immune toxicity of the treated compounds with the regular concentrations within 48 h.
(§2) The MDA-MB-231 and Jurkat cell line was provided by the Chinese Academy of Sciences Cell Bank. The cytotoxicity of the test compounds was determined using the MTT assay. Briefly, MDA-MB-231 and Jurkat cells were incubated at 37 °C in a humidified 5% CO2 incubator for 24 h in 96-microwell plates. Then, 100 μL of culture medium containing the test compounds at different concentrations was added to each well and incubated at 37 °C for another 48 h. The MTT was added and incubated for another 4 h, and the optical density was detected with a microplate reader at 570 nm. The IC50 values were calculated according to the dose-dependent curves.

Jurkat T cells = assay: MTT non-specific cytotoxicity assay, Jurkat; type: cell-based
Experimental: as §1, §2

Water solubility by HPLC = type: physicochemical; settings: aqueous buffer, thermodynamic from solid, pH 7.4, PBS
Experimental: The aqueous solubility was estimated by HPLC. The HPLC analysis was performed on a Shimadzu LC-20AT machine with a BDS Hypersil C18 column, and the column temperature was at 28 °C. Mobile phase B (100% MeOH) and mobile phase A (100% water) were used in a gradient elution program (0 min: 30% (B), 2 min: 50% (B), 8 min: 95% (B), 14 min: 95% (B), 18 min: 70% (B), 20 min: 30% (B)) with a flow rate of 1.0 mL/min at […]. Methanol was used to configure an accurate compounds concentration to calculate the standard curve. The excess test compound was dissolved in PBS (KH2PO4 0.24 g + KCl 0.2 g + NaCl 8 g + Na2HPO4·12H2O 3.58 g + 1 L water) and then analyzed by HPLC.

[1] = tested on: Hep3B/OS-8/hPD-L1 and CD3+ T cells co-culture; assay: IFN-γ production in Hep3B/OS-8/hPD-L1 and CD3+ T cell co-culture assay

What does the source list for `COc1nc(-c2cccc(-c3ccccc3F)c2C)ccc1CNCCC(N)=O` [Compound A9, 3-(((6-(2′-Fluoro-2-methyl-[1,1′-biphenyl]-3-yl)-2-methoxypyridin-3-yl)methyl)amino)propenamide]?
increase in activity as compared with A4 (PD-1/PD-L1 interaction; HTRF IC50 ratio): more than 23 fold; IC50 (PD-1/PD-L1 interaction; HTRF, two independent experiments): 0.00093 µM; LE (PD-1/PD-L1 interaction; LE = −1.35 logIC50/Nheavy atoms (HTRF IC50)): 0.43; LE (hPD-L1; LE = -1.35log KD/Nheavy atoms (SPR KD)): 0.40; KD compared with that of A15 (hPD-L1; SPR KD ratio): 5 fold; kon (hPD-L1; SPR association rate, read-out: Ka (M-1s-1) / Kon): 538000 M⁻¹ s⁻¹; koff (hPD-L1; SPR dissociation rate, read-out: Kd (s-1) / Koff): 0.00196 s⁻¹; Kd (hPD-L1; SPR, 25 °C, 1:1 binding model): 0.00364 µM; EC50 (MDA-MB-231 cells; Homo sapiens, MDA-MB-231, 48 h, read-out: EC50 (μM)/MDA-MB-231 Toxicity): 11.1 µM; direct killing of tumor cells (MDA-MB-231 cells; as shown in Table 3): do not directly kill tumor cells; EC50 (Jurkat T cells; Homo sapiens, Jurkat, MTT, 48 h, read-out: EC50 (μM)/Jurkat Toxicity): 7.6 µM; immune toxicity in Jurkat T cells (Jurkat T cells; regular concentrations within 48 h): lower cell toxicity; solubility (Water solubility by HPLC): 0.126 mg/mL (≈ 321 µM); IFN-γ production / release ([1]; 72 h co-culture, ELISA, dose response): promote the dose-dependent release of IFN-γ; also recorded: significantly promote the production of IFN-γ in a dose-dependent manner; also recorded: potently induces the release of IFN-γ; promoting effect on IFN-γ production compared with BMS-202 ([1]; A9 at 5 μM): significantly higher than that of BMS-202; promoting effect on IFN-γ production compared with Keytruda ([1]; A9 at 5 μM vs Keytruda at 5 μg/mL): comparable promoting effect on production of INF-γ; also recorded: comparable to that of Keytruda at 5 μg/mL
